# Measured values taken from patent publication US12031136B2, “Treatment for skeletal diseases caused by intracellular protein trafficking defects” (Oklahoma Medical Research Foundation, priority 2017, dated 2024).
# “Also recorded” adds a separate entry of the source.
# Columns and labels:
# [1] = Growth hormone replacement therapy in the patient; type: in vivo, human; conditions: started, discontinued after 1 year
# [2] = test system: mutant MBTPS1 transcripts; assay: Nonsense-mediated mRNA decay test in parental immortalized B cells; type: cell-based, human; conditions: cycloheximide 100 μM, 6 hours
# Procedure: (§1) Gene expression analyses with qPCR. Gene expression levels in the patient and irrelevant healthy control immortalized B cells or immortalized fibroblasts were analyzed by qPCR using primers listed in Supplemental Table 3. Total RNA extracted from the cells using Trizol was converted to cDNA using the M-MLV Reverse Transcriptase system. PCR analysis of cDNA was performed with the SYBR Green qPCR system using a CFX96 Real-time system instrument (Bio-Rad). To test for NMD, treatment with cycloheximide (100 μM) was performed by incubating patient's parental immortalized B cells for 6 hours, and then transcripts were analyzed by direct sequencing.
# Tango1 and Hsp47 = assay: Western blotting of Sec23a, Tango1 and Hsp47 in fibroblasts; type: cell-based, human; conditions: patient fibroblasts treated with S1P inhibitor
# Procedure: (§2) Western blotting. Protein extracts from cultured cells or tissues were prepared using a 1% Triton X-100-based cell lysis buffer. Lysates were applied to an 8%-12% SDS-PAGE gel. Separated proteins were transferred onto an Immobilon-P membrane (Millipore). After blots were blocked, the membranes were incubated with antibodies and were then developed with ECL systems. Exposed X-ray films were scanned and analyzed with ImageJ software (NIH). For protein extraction from cartilage from mouse ribs, proteins from frozen tissues were extracted into 8 M urea lysis buffer using Bead-beater (34) (Biospec Products Inc.). For detecting endogenous GPT in immortalized B cells, 1.5×10^7 cells were suspended in hypotonic lysis buffer and then ultrasonicated for 30 seconds. After removing debris by spinning at 1,000 g for 3 minutes, supernatant was further ultracentrifuged at 100,000 g for 2 hours. The membrane fractions were solubilized with 3% Triton X-100-containing lysis buffer, 150 μg protein was analyzed by Western blotting.
# patient fibroblasts = assay: Secreted procollagen I ELISA of fibroblast supernatant; type: cell-based, human
# Procedure: Measurement of secreted procollagen I. Supernatant from cultured fibroblasts was collected at 48 hours after treatment with AMO and was then diluted 500-fold with PBS (39). Secreted procollagen 1a in diluted samples was measured with an ELISA kit according to the manufacturer's instructions (R&D Systems).
# [3] = test system: maternal and patient fibroblasts; assay: Lysosomal enzyme secretion and lysosome morphology in fibroblasts treated with S1P inhibitor; type: cell-based, human; conditions: maternal and patient fibroblasts treated with PF-429242
# BBF2H7 = assay: Western blotting of endogenous BBF2H7 cleavage in AMO-treated patient fibroblasts; type: cell-based, human; conditions: AMO vs control oligo
# Procedure: as §2
# AMO. […] After 12, 24, and 48 hours, RNA was extracted for quantitative RT-PCR as well as cloning of MBTPS1 cDNA. The following primer pair was used to quantify a MBTPS1 transcript with 41-bp deletion in exon 9: forward primer targeting the boundary exons 7 and 8, 5′-[…]-3′; reverse primer targeting exon 10, 5′-CTGG-TAGCTCCTTCAAAGTC-3′.
# MBTPS1 transcripts = assay: MBTPS1 transcript analysis (qRT-PCR and cloning of exon 9 cDNA) in fibroblasts treated with AMO; type: cell-based, human
# Procedure: as §1
# AMO. The AMO (5′-AGAAAAGCGGGCGATGTTAcCTTCA-3′ [the lowercase “c” represents the mutated base compared to healthy control]) against exon 9 in the maternal mutant transcript containing cryptic splice donor site was designed (Gene Tools Inc.) (38). Forty thousand fibroblasts were seeded onto a 24-well plate. Introduction of AMO (10 μM) in maternal and patient fibroblasts was carried out using the Endo-Porter (6 μM) peptide delivery system (Gene Tools Inc.). After 12, 24, and 48 hours, RNA was extracted for quantitative RT-PCR as well as cloning of MBTPS1 cDNA. The following primer pair was used to quantify a MBTPS1 transcript with 41-bp deletion in exon 9: forward primer targeting the boundary exons 7 and 8, 5′-[…]-3′; reverse primer targeting exon 10, 5′-CTGG-TAGCTCCTTCAAAGTC-3′.
# [4] = test system: UPR- and COP-II-related genes; assay: qRT-PCR of UPR- and COP-II-related genes in patient fibroblasts after AMO; type: cell-based, human; conditions: patient fibroblasts treated with AMO
# Procedure: as §1
# AMO. The AMO (5′-AGAAAAGCGGGCGATGTTAcCTTCA-3′ [the lowercase “c” represents the mutated base compared to healthy control]) against exon 9 in the maternal mutant transcript containing cryptic splice donor site was designed (Gene Tools Inc.) (38). Forty thousand fibroblasts were seeded onto a 24-well plate. […] After 12, 24, and 48 hours, RNA was extracted for quantitative RT-PCR as well as cloning of MBTPS1 cDNA. The following primer pair was used to quantify a MBTPS1 transcript with 41-bp deletion in exon 9: forward primer targeting the boundary exons 7 and 8, 5′-[…]-3′; reverse primer targeting exon 10, 5′-CTGG-TAGCTCCTTCAAAGTC-3′.
molecule,measurement,setting,value
Human growth hormone: Human growth hormone replacement therapy given to the patient,clinical response (growth),[1],limited response
C[C@@H]1C[C@@H]([C@H](O)CC2CC(=O)NC(=O)C2)C(=O)[C@@H](C)C1 [cycloheximide],mutant MBTPS1 transcripts (NMD inhibition),[2],stabilized
PF-429242,Tango1 and Hsp47 protein,Tango1 and Hsp47,further decreased
same,collagen I secretion,patient fibroblasts; patient fibroblasts treated with S1P inhibitor,impaired
same,lysosome size,[3],lysosomal hypertrophy
same,secretion of lysosomal enzymes,[3],elevated
AMO: Antisense morpholino oligo 5′-AGAAAAGCGGGCGATGTTAcCTTCA-3′ against exon 9 cryptic splice donor site in the maternal mutant MBTPS1 transcript (antisense AGAAAAGCGGGCGATGTTACCTTCA; all phosphorodiamidate morpholino (PMO)),S1P-dependent activation (cleavage) of BBF2H7,BBF2H7,improved cleavage; also recorded: increased
same,41-bp-deleted pathogenic splice variant,"MBTPS1 transcripts; patient cells, compared with control oligo",substantial decrease
same,increase of total MBTPS1 expression,"MBTPS1 transcripts; patient fibroblasts treated with AMO, data not shown",10 fold
same,increase in properly spliced MBTPS1 transcripts,"MBTPS1 transcripts; patient fibroblasts, AMO 10 μM, compared with control oligo",20 fold
same,increase in correctly spliced transcript (cloned exon 9 of MBTPS1 cDNA),"MBTPS1 transcripts; patient fibroblasts, compared with control oligo treatment",2 fold
same,increase of absolute maternal transcript with a missense mutation (p.D365G),"MBTPS1 transcripts; patient fibroblasts, compared with control oligo-treated cells",20 fold
same,secretion of collagen I (secreted procollagen I),"patient fibroblasts; patient fibroblasts, 48 hours after AMO",increased
same,expression of UPR- and COP-II-related genes,[4],increased
